Our source for the normalised viability and normalised response values is the supplement of paper PMC4862054.

Where “and” joins values, the source holds several entries; their conditions need not be identical. Equal values may be shown once.

Holding throughout (details): incubation time: 72 h
For test [1], the system named is HDQ-P1. The experiment in a line: normalised viability (% of control), CellTiter-Blue; higher = more viable cells (about 100 = DMSO control). Here is the method:
(§1)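 DSRT, CellTiter-Blue viability, 72 h incubation. Signal is normalised to DMSO and benzethonium chloride controls. Value is the normalised response at dose 7.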
Background: Alamar Blue is a resazurin reagent that responds to reducing activity.

The test system of test [2] is CAL-85-1. Described as above. Here is the method: as §1
The test system of test [3] is CAL-51. The test is described as above. Here is the method:
as §1

In test [4] the test system is CAL-148. The description is as above. As to the method:
as §1

The test system of test [5] is DU-4475. Described as above. Here is the method:
as §1

Test [6] relates to MDA-MB-453. The description is as above. Here is the method:
as §1

Test [7] relates to CAL-85-1. The test is described as above. Here is the method:
(§2)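 DSRT, CellTiter-Blue viability, 72 h incubation. Signal is normalised to DMSO and benzethonium chloride controls. Value is the normalised response at dose 6.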
This is another data set of the same source.

The test system of test [8] is CAL-51. The description is as above. Here is the method:
as §2
The source holds these as a separate data set.

In test [9] the test system is CAL-148. The test is described as above. As to the method:
as §2
The source holds these as a separate data set.

Test [10] relates to DU-4475. The description is as above. Here is the method: as §2
The source holds these as a separate data set.

The subject of test [11] is MDA-MB-453. The test is described as above. As to the method:
as §2
This is another data set of the same source.

The test system of test [12] is HDQ-P1. Described as above. As to the method:
(§3)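 DSRT, CellTiter-Blue viability, 72 h incubation. Signal is normalised to DMSO and benzethonium chloride controls. Value is the normalised response at dose 9.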
The source holds these as a separate data set.

For test [13], the system named is CAL-85-1. The description is as above. Here is the method:
as §3
This is another data set of the same source.

The test system of test [14] is CAL-51. Described as above. As to the method: as §3
This is another data set of the same source.

In test [15] the test system is CAL-148. The description is as above. As to the method: as §3
The source holds these as a separate data set.

The test system of test [16] is DU-4475. Described as above. Here is the method: as §3
The source holds these as a separate data set.

The subject of test [17] is MDA-MB-453. Described as above. Here is the method:
as §3
This is another data set of the same source.

Test [18] deals with HDQ-P1. Described as above. Here is the method:
(§4)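 DSRT, CellTiter-Blue viability, 72 h incubation. Signal is normalised to DMSO and benzethonium chloride controls. Value is the normalised response at dose 8.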
This is another data set of the same source.

The test system of test [19] is CAL-85-1. The description is as above. As to the method:
as §4
This is another data set of the same source.

Test [20] concerns CAL-51. The description is as above. Here is the method: as §4
The source holds these as a separate data set.

Test [21] relates to CAL-148. The test is described as above. As to the method:
as §4
This is another data set of the same source.

For test [22], the system named is MDA-MB-453. Described as above. Here is the method: as §4
The source holds these as a separate data set.

For test [23], the system named is MDA-MB-231. The experiment in a line: normalised response (% of control), CellTiter-Glo; higher = more viable cells (100 = DMSO, 0 = benzethonium chloride kill control). As to the method: (§5)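 DSRT, 72 h incubation, CellTox Green / CellTiter-Glo readout. Signal is normalised to DMSO and benzethonium chloride controls. Value is the normalised response at the highest dose.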
In general terms: In ATP-based viability assays light output follows the ATP content of the culture.

The test system of test [24] is HDQ-P1. The test is described as above. Here is the method:
as §5

Test [25] deals with MCF-10A. Described as above. Here is the method: as §5
For test [26], the system named is CAL-85-1. Described as above. As to the method:
as §5

Test [27] deals with CAL-51. The test is described as above. Here is the method: as §5
Test [28] has as its system MDA-MB-468. Described as above. Here is the method:
as §5

For test [29], the system named is HCC1143. Described as above. As to the method: as §5
Test [30] relates to CAL-148. The test is described as above. As to the method:
as §5

Test [31] has as its system CAL-120. The test is described as above. Here is the method:
as §5

Test [32] deals with HCC1599. The description is as above. As to the method: as §5
Test [33] relates to HCC1937. The test is described as above. Here is the method:
as §5

The subject of test [34] is Hs578T. Described as above. Here is the method:
as §5

The subject of test [35] is BT-474. The description is as above. Here is the method: as §5
For test [36], the system named is DU-4475. Described as above. Here is the method:
as §5

For test [37], the system named is MDA-MB-436. The description is as above. As to the method: as §5
Test [38] relates to MFM-223. The description is as above. As to the method: as §5
Test [39] concerns BT-549. The test is described as above. As to the method: as §5
Test [40] concerns MDA-MB-453. Described as above. As to the method: as §5
Test [41] concerns SK-BR-3. Described as above. As to the method:
as §5

Test [42] has as its system MDA-MB-231. As to the kind of experiment: normalised response (% of control), CellTox Green; higher = less cell death (100 = DMSO, 0 = benzethonium chloride kill control). In outline:
(§6)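 Breast cancer cell lines in 20 µl suspension were added to 384-well plates containing compound at 5 concentrations, spaced in 10-fold steps across a 10,000-fold range chosen for each compound, and incubated for 72 h. CellTox Green fluorescence was read at 485/520 nm, followed by CellTiter-Glo luminescence after 10 min at room temperature. Signals on each plate were normalised so that 0.1 % DMSO equals 100 and a positive kill control equals 0. Every value in the table is the normalised signal at one concentration of the series.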

Test [43] relates to HDQ-P1. The description is as above. A digest of the protocol:
as §6

The test system of test [44] is MCF-10A. The test is described as above. In outline: as §6
The test system of test [45] is CAL-85-1. The test is described as above. In outline: as §6
Test [46] relates to CAL-51. The test is described as above. In outline: as §6
In test [47] the test system is MDA-MB-468. The test is described as above. In outline: as §6
Test [48] relates to HCC1143. The description is as above. A digest of the protocol:
as §6

For test [49], the system named is CAL-148. The description is as above. A digest of the protocol: as §6
Test [50] concerns CAL-120. The test is described as above. In outline: as §6
Test [51] deals with HCC1599. The test is described as above. A digest of the protocol: as §6
Test [52] has as its system HCC1937. The description is as above. A digest of the protocol: as §6
Test [53] relates to Hs578T. The description is as above. A digest of the protocol:
as §6

Test [54] concerns BT-474. The description is as above. A digest of the protocol: as §6
Test [55] has as its system DU-4475. Described as above. In outline: as §6
Test [56] deals with MDA-MB-436. The test is described as above. In outline: as §6
Test [57] deals with MFM-223. The test is described as above. In outline:
as §6

The subject of test [58] is BT-549. The test is described as above. A digest of the protocol: as §6
Test [59] has as its system MDA-MB-453. Described as above. In outline: as §6

As for `C=CCN(/C=C1/C(=O)O[C@H](COC)[C@@]2(C)C1=C(O)C(=O)C1=C2[C@H](OC(C)=O)C[C@]2(C)C(=O)CC[C@@H]12)CC=C` [PX-866] (1000 nM), the normalised viability was 86.3% in test [1]; 95% in [2]; 112% in test [3]; 99.4% in test [4]; 102% in test [5]; 101% in test [6].
In the case of `O=C(CCCCCCC(=O)Nc1ccccc1)NO` [Vorinostat] (300 nM), the normalised viability in test [7] is 95.3% and 104%; in test [8] it was 116% and 104%; in test [9], 85.6% and 94.9%; in test [10], 97.4% and 88.9%; in test [11], 82.8% and 81.7%.
With `CC[C@H](CO)Nc1nc(NCc2ccccc2)c2ncn(C(C)C)c2n1` [Roscovitine] (10000 nM), the normalised viability in test [12] was found to be 75.6%; in test [13], 61.9%; in test [14], 85%; in test [15] it was 80.8%; in test [16] it was 96.6%; in [17] it was 63.4%.
Turning to `CN(Cc1cnc2nc(N)nc(N)c2n1)c1ccc(C(=O)N[C@@H](CCC(=O)O)C(=O)O)cc1` [Methotrexate] (1000 nM), the normalised viability stood at 77.6% in test [1]; 57.4% in test [2]; 42.5% in [3]; 67.8% in [4]; 110% in test [5]; 84.2% in [6].
With `CCN(CC)CCCC(C)Nc1ccnc2cc(Cl)ccc12` (centres undefined) [Chloroquine] (99 nM), the normalised viability came out at 132% in [1]; 81.9% in [2]; 91% in test [3]; 99.1% in test [4]; 110% in [5]; 99.7% in [6].
As for `C=CCN(/C=C1/C(=O)O[C@H](COC)[C@@]2(C)C1=C(O)C(=O)C1=C2[C@H](OC(C)=O)C[C@]2(C)C(=O)CC[C@@H]12)CC=C` [PX-866] (10000 nM), the normalised viability turned out to be 53.2% in [12]; 88.9% in test [13]; 97.8% in test [14]; 112% in test [15]; 88% in test [16]; 70.2% in [17].
With `COc1c2occc2cc2ccc(=O)oc12` [Methoxsalen] (1000 nM), the normalised viability came out at 96.9% in test [1]; 104% in [2]; 100% in test [3]; 106% in [4]; 112% in test [5]; 97.9% in [6].
In the case of `O=C(CCCCCCC(=O)Nc1ccccc1)NO` [Vorinostat] (3000 nM), the normalised viability is 68.1% and 62.5% in test [18]; 59.5% and 66.1% in test [19]; 101% and 94.8% in test [20]; 49.7% and 59.7% in test [21]; 12.2% and 9.84% in [22].
As to `CC[C@H](CO)Nc1nc(NCc2ccccc2)c2ncn(C(C)C)c2n1` [Roscovitine] (1000 nM), the normalised viability is 104% in test [1]; 87.8% in test [2]; 105% in test [3]; 92.1% in test [4]; 101% in test [5]; 96.2% in test [6].
Take `CC(C)n1cnc2c(NCCc3ccc(O)cc3)nc(-c3csc4ccccc34)nc21` [StemRegenin 1] (10000 nM): the normalised response in [23] is 85.3%; in test [24] it was 76.9%; in test [25], 97.7%; in test [26], 78.2%; in test [27], 107%; in test [28], 47.5%. Besides, the normalised response in test [29] came out at 93.6%; in test [30], 102%; in [31], 89.2%; in test [32] it was 61.6%; in test [33], 58.9%; in test [34], 76.3%. The normalised response in test [35] came to 71.4%; in test [36], 89.3%; in [37], 74%; in test [38], 59.2%; in test [39], 76.4%; in test [40], 76.1%. The normalised response amounted to 68.3% in test [41]; 100% in [42]; 84.8% in [43]; 118% in [44]; 78.5% in [45]; 122% in test [46]. The normalised response in test [47] turned out to be 130%; in [48] it was 70.8%; in test [49], 104%; in test [50], 103%; in test [51] it was 102%; in test [52], 91.1%. The normalised response is -20% in test [53]; 85.5% in test [54]; 98.1% in test [55]; 103% in [56]; 28.5% in test [57]; 94.6% in [58]. In addition, the normalised response in [59] was determined as 87.5%.
